Assay results published in US11395847B2, “Acylated GLP-1/GLP-2 dual agonists” (Zealand Pharma A/S, priority 2016, dated 2022).
*1 amine or outer side, *2 acyl side, *3 side chain or, on linkers, in order; H or OH if unused. Where a SMILES comes first, the peptide text is derived from it. Side-chain parts run from the residue outwards. [ ]: non-standard residue; d: D form. The star is where a group is joined. C20 diacid = O=C(O)CCCCCCCCCCCCCCCCCCC(=O)*; γGlu = O=C(O)[C@H](CCC(=O)[*:2])N[*:1]; AEEA = NCCOCCOCC(=O)O; Aib = CC(C)(N)C(=O)O

Assay: Chemical stability (RP-HPLC normalized purity after incubation at 40° C.)
Format: physicochemical
Details: pH 7, 40° C., 14-day incubation, 0.2 mg/ml, normalized purity (area-%)
Procedure: Samples of each test peptide were dissolved in MILLIQ™ water, and the pH of the solution was adjusted to pH 6, 7, 7.5 or 9 using either HCl or NaOH. The final peptide concentration was 0.2 mg/ml. Samples were placed in glass vials and incubated at 40° C. The samples were analyzed by RP-HPLC on a C18 column with gradient elution using an acetonitrile/TFA/water eluent system. The area-percentage (area-%) of the main peak after incubation time T=t (relative to time T=0) was determined by UV spectroscopy at 220 nm.
The purity was first determined as follows: Purity(area-%)=(area of main peak/total area of all peaks)×100.
The purity was then normalized between time points by setting purity at time 0 (T=0) to 100 for each pH value for a given peptide, as follows: Normalized area-% at time t(T=t)=[area-%(T=t)/area-%(T=0)]×100.
The chemical stability assessment results after 14-day incubation (in the form of normalized purity values) are summarized in Table 4.

Structure (SMILES)	pH 7 normalized stability
CC[C@H](C)[C@H](NC(=O)[C@H](CC(C)C)NC(=O)[C@H](Cc1c[nH]c2ccccc12)NC(=O)[C@H](C)NC(=O)[C@@H](NC(=O)[C@H](Cc1ccccc1)NC(=O)[C@H](CC(=O)O)NC(=O)[C@H](CCCNC(=N)N)NC(=O)[C@H](C)NC(=O)[C@H](C)NC(=O)[C@H](CC(C)C)NC(=O)[C@H](CCCCNC(=O)CC[C@H](NC(=O)CCCCCCCCCCCCCCCCC(=O)O)C(=O)O)NC(=O)[C@H](CC(=O)O)NC(=O)[C@H](CC(C)C)NC(=O)[C@@H](NC(=O)[C@@H](NC(=O)[C@H](C)NC(=O)[C@H](CC(C)C)NC(=O)[C@H](CCC(=O)O)NC(=O)[C@H](CO)NC(=O)[C@@H](NC(=O)[C@H](Cc1ccccc1)NC(=O)[C@H](CO)NC(=O)CNC(=O)[C@H](CCC(=O)O)NC(=O)C(C)(C)NC(=O)[C@@H](N)Cc1c[nH]cn1)[C@@H](C)O)[C@@H](C)O)[C@@H](C)CC)[C@@H](C)CC)C(=O)N[C@@H](C)C(=O)N[C@@H](Cc1c[nH]cn1)C(=O)N[C@@H](CCCCN)C(=O)N[C@H](C(=O)N[C@H](C(=O)N[C@@H](CC(=O)O)C(=O)O)[C@@H](C)O)[C@@H](C)CC [Compound 14] (HELM PEPTIDE1{H.[Aib].E.G.S.F.T.S.E.L.A.T.I.L.D.K.L.A.A.R.D.F.I.A.W.L.I.A.H.K.I.T.D}|PEPTIDE2{[O=C(O)CCCCCCCCCCCCCCCCC(=O)[*:2]].[gGlu]}$PEPTIDE1,PEPTIDE2,16:R3-2:R2$$$V2.0)	A (>90% normalised stability)
CC[C@H](C)[C@H](NC(=O)[C@H](Cc1ccccc1)NC(=O)[C@H](CC(=O)O)NC(=O)[C@H](CCCNC(=N)N)NC(=O)[C@H](C)NC(=O)[C@H](C)NC(=O)[C@H](CCC(N)=O)NC(=O)[C@H](CCCCNC(=O)COCCOCCNC(=O)CC[C@H](NC(=O)CCCCCCCCCCCCCCCCC(=O)O)C(=O)O)NC(=O)[C@H](CC(=O)O)NC(=O)[C@H](CC(C)C)NC(=O)[C@@H](NC(=O)[C@@H](NC(=O)[C@H](C)NC(=O)[C@H](CC(C)C)NC(=O)[C@H](CCC(=O)O)NC(=O)[C@H](CO)NC(=O)[C@@H](NC(=O)[C@H](Cc1ccccc1)NC(=O)[C@H](CO)NC(=O)CNC(=O)[C@H](CCC(=O)O)NC(=O)C(C)(C)NC(=O)[C@@H](N)Cc1c[nH]cn1)[C@@H](C)O)[C@@H](C)O)[C@@H](C)CC)C(=O)N[C@@H](C)C(=O)N[C@@H](Cc1c[nH]c2ccccc12)C(=O)N[C@@H](CC(C)C)C(=O)N[C@@H](Cc1ccc(O)cc1)C(=O)N[C@@H](CCC(N)=O)C(=O)N[C@@H](Cc1c[nH]cn1)C(=O)N[C@@H](CCCCN)C(=O)N[C@H](C(=O)N[C@H](C(=O)N[C@@H](CC(=O)O)C(=O)O)[C@@H](C)O)[C@@H](C)CC [Compound 33] (HELM PEPTIDE1{H.[Aib].E.G.S.F.T.S.E.L.A.T.I.L.D.K.Q.A.A.R.D.F.I.A.W.L.Y.Q.H.K.I.T.D}|PEPTIDE2{[O=C(O)CCCCCCCCCCCCCCCCC(=O)[*:2]].[gGlu].[O=C(COCCOCCN[*:1])[*:2]]}$PEPTIDE1,PEPTIDE2,16:R3-3:R2$$$V2.0)	A (>90% normalised stability)
CC[C@H](C)[C@H](NC(=O)[C@H](Cc1ccccc1)NC(=O)[C@H](CC(=O)O)NC(=O)[C@H](CCCNC(=N)N)NC(=O)[C@H](C)NC(=O)[C@H](C)NC(=O)[C@H](CCC(N)=O)NC(=O)[C@H](CCC(=O)O)NC(=O)[C@H](CC(=O)O)NC(=O)[C@H](CC(C)C)NC(=O)[C@@H](NC(=O)[C@@H](NC(=O)[C@H](C)NC(=O)[C@H](CCCCNC(=O)COCCOCCNC(=O)[C@H](CCCCN)NC(=O)[C@H](CCC(=O)O)NC(=O)[C@H](CCCCN)NC(=O)CC[C@H](NC(=O)CCCCCCCCCCCCCCCCCCC(=O)O)C(=O)O)NC(=O)[C@H](CCC(=O)O)NC(=O)[C@H](CO)NC(=O)[C@@H](NC(=O)[C@H](Cc1ccccc1)NC(=O)[C@H](CO)NC(=O)CNC(=O)[C@H](CCC(=O)O)NC(=O)C(C)(C)NC(=O)[C@@H](N)Cc1c[nH]cn1)[C@@H](C)O)[C@@H](C)O)[C@@H](C)CC)C(=O)N[C@@H](C)C(=O)N[C@@H](Cc1c[nH]c2ccccc12)C(=O)N[C@@H](CC(C)C)C(=O)N[C@H](C(=O)N[C@@H](CCC(=O)O)C(=O)N[C@@H](Cc1c[nH]cn1)C(=O)N[C@@H](CCCCN)C(=O)N[C@H](C(=O)N[C@H](C(=O)N[C@@H](CC(=O)O)C(=O)O)[C@@H](C)O)[C@@H](C)CC)[C@@H](C)CC [Compound 53] (HELM PEPTIDE1{H.[Aib].E.G.S.F.T.S.E.K.A.T.I.L.D.E.Q.A.A.R.D.F.I.A.W.L.I.E.H.K.I.T.D}|PEPTIDE2{[O=C(O)CCCCCCCCCCCCCCCCCCC(=O)[*:2]].[gGlu].K.E.K.[O=C(COCCOCCN[*:1])[*:2]]}$PEPTIDE1,PEPTIDE2,10:R3-6:R2$$$V2.0)	A (>90% normalised stability)
CC[C@H](C)[C@H](NC(=O)[C@H](Cc1ccccc1)NC(=O)[C@H](CC(=O)O)NC(=O)[C@H](CCCCNC(=O)COCCOCCNC(=O)COCCOCCNC(=O)[C@H](CCCCN)NC(=O)[C@H](CCC(=O)O)NC(=O)[C@H](CCCCN)NC(=O)CC[C@H](NC(=O)CCCCCCCCCCCCCCCCCCC(=O)O)C(=O)O)NC(=O)[C@H](C)NC(=O)[C@H](C)NC(=O)[C@H](CCC(N)=O)NC(=O)[C@H](CCC(=O)O)NC(=O)[C@H](CC(=O)O)NC(=O)[C@H](CC(C)C)NC(=O)[C@@H](NC(=O)[C@@H](NC(=O)[C@H](C)NC(=O)[C@H](CC(C)C)NC(=O)[C@H](CCC(=O)O)NC(=O)[C@H](CO)NC(=O)[C@@H](NC(=O)[C@H](Cc1ccccc1)NC(=O)[C@@H](NC(=O)CNC(=O)[C@H](CCC(=O)O)NC(=O)C(C)(C)NC(=O)[C@@H](N)Cc1c[nH]cn1)[C@@H](C)O)[C@@H](C)O)[C@@H](C)O)[C@@H](C)CC)C(=O)N[C@@H](C)C(=O)N[C@@H](Cc1c[nH]c2ccccc12)C(=O)N[C@@H](CC(C)C)C(=O)N[C@H](C(=O)N[C@@H](CCC(=O)O)C(=O)N[C@@H](Cc1c[nH]cn1)C(=O)N[C@@H](CCCCN)C(=O)N[C@H](C(=O)N[C@H](C(=O)N[C@@H](CC(=O)O)C(=O)O)[C@@H](C)O)[C@@H](C)CC)[C@@H](C)CC [Compound 67] (H-H[Aib]EGTFTSELATILDEQAAK([AEEA-AEEA-Lys-Glu-Lys-γGlu-C20 diacid])DFIAWLIEHKITD-OH)	A (>90% normalised stability)
CC[C@H](C)[C@H](NC(=O)[C@H](Cc1ccccc1)NC(=O)[C@H](CC(=O)O)NC(=O)[C@H](CCCCNC(=O)COCCOCCNC(=O)[C@H](CCCCN)NC(=O)[C@H](CCC(=O)O)NC(=O)[C@H](CCCCN)NC(=O)CC[C@H](NC(=O)CCCCCCCCCCCCCCCCCCC(=O)O)C(=O)O)NC(=O)[C@H](C)NC(=O)[C@H](C)NC(=O)[C@H](CCCCN)NC(=O)[C@H](C)NC(=O)[C@H](CC(=O)O)NC(=O)[C@H](CC(C)C)NC(=O)[C@@H](NC(=O)[C@@H](NC(=O)[C@H](C)NC(=O)[C@H](CC(C)C)NC(=O)[C@H](CCC(=O)O)NC(=O)[C@H](CO)NC(=O)[C@@H](NC(=O)[C@H](Cc1ccccc1)NC(=O)[C@H](CO)NC(=O)CNC(=O)[C@H](CCC(=O)O)NC(=O)C(C)(C)NC(=O)[C@@H](N)Cc1c[nH]cn1)[C@@H](C)O)[C@@H](C)O)[C@@H](C)CC)C(=O)N[C@@H](C)C(=O)N[C@@H](Cc1c[nH]c2ccccc12)C(=O)N[C@@H](CC(C)C)C(=O)N[C@H](C(=O)N[C@@H](CCC(=O)O)C(=O)N[C@@H](Cc1c[nH]cn1)C(=O)N[C@@H](CCCCN)C(=O)N[C@H](C(=O)N[C@H](C(=O)N[C@@H](CC(=O)O)C(=O)O)[C@@H](C)O)[C@@H](C)CC)[C@@H](C)CC [Compound 68] (HELM PEPTIDE1{H.[Aib].E.G.S.F.T.S.E.L.A.T.I.L.D.A.K.A.A.K.D.F.I.A.W.L.I.E.H.K.I.T.D}|PEPTIDE2{[O=C(O)CCCCCCCCCCCCCCCCCCC(=O)[*:2]].[gGlu].K.E.K.[O=C(COCCOCCN[*:1])[*:2]]}$PEPTIDE1,PEPTIDE2,20:R3-6:R2$$$V2.0)	A (>90% normalised stability)
